From US20250296922A1, “POLYSUBSTITUTED PYRROLIDINE DERIVATIVE, PREPARATION METHOD THEREFOR AND USE THEREOF” (SHANGHAI WENNAI THERAPEUTICS CO LTD, priority 2023, published 2025) come the findings set out here.

Data set [1] is described as follows: Pharmacokinetic experiment, dog test, intravenous injection. The format is in vivo. The conditions noted are these: male Beagle, 0.5 mg/kg. The source says: 4.2.1 Abstract: Beagle was used as the test animal, the LC/MS/MS method was applied to determine the drug concentration in the plasma of Beagle at different points after intravenous injection of the compounds of the examples, to study the pharmacokinetic behavior of the compounds of the present invention in the Beagle, and to evaluate their pharmacokinetic characteristics.
4.2.2.2 Test animals: 4 male Beagles, provided by Jiangsu LingfuZhaoshengyuan Biotechnology Co. Fasting started at 5 p.m. on the day before drug administration, and the duration of fasting was no less than 12 hours, and food was resumed 4 hours after drug administration.
4.2.2.3 Drug Preparation: Weighed an amount of the test compound and prepared a completely clear solution with a final concentration of 1 mg/mL using a mixed solvent of DMSO: Solutol: Saline (5%: 5%: 90%).
4.2.2.4 Administration: a dose of 0.5 mg/kg, a volume of 0.5 mL/kg.
4.2.3 Test operation: 0.4 mL of blood samples were collected from the forelimb vein of male Beagles before and 5 min, 15 min, 30 min, 1 h, 2h, 4 h, 6h, 8 h, 10 h and 24 h after intravenous administration and placed in EDTA-K2 anticoagulant tubes. After blood samples were collected, they were placed in labelled centrifuge tubes in ice water bath and rapidly centrifuged to separate the plasma. Centrifugation conditions: 4000 rpm, 10 min, 4° C., and the plasma was placed at −70° C. or below for measurement.
Plasma samples were thawed at room temperature and 50 μL was added to 400 μL of acetonitrile containing the internal standard (40 ng/mL, terfenadine), vortexed for 1 min and then centrifuged at 15400 g for 10 min at 4° C. The supernatant was diluted 10-fold with 80% acetonitrile in water and 1 μL sample was injected for analysis.

Data set [2] is described as follows: Stability of the compound in liver microsomes (rat). The format is in vitro ADME, SD rat. The conditions noted are these: 1 μM compound, 0.5 mg protein/mL. The procedure: 2.1.1. working solution: 5 μL of test or control compound stock solution (10 mM DMSO solution) was diluted with 495 μL of acetonitrile (ACN) to obtain an intermediate stock solution (100 μM, 99% ACN).
2.2.2 Preparation procedure: An appropriate amount of NADPH powder was weighed and diluted with 10 mM MgCl2 buffer (working solution concentration: 10 mM; final reaction system concentration: 1 mM).
2.3.2 Preparation procedure: The appropriate concentration of liver microsomal working solution was prepared in 100 mM potassium phosphate buffer;
Acetonitrile (ACN) solution at 4° C. containing 200 ng/mL of Tolbutamide and 200 ng/ml of labetalol as internal standards 2.5. Operation steps:
2.5.2. Diluting liver microsomes with 100 mM potassium phosphate buffer to a concentration of 0.56 mg/mL.
2.5.3. Transferring 445 μL of liver microsomal working solution (0.56 mg/mL) to pre-heated incubation plates T60 and NCF60, and then pre-heating the incubation plates T60 and NCF60 for 10 minutes at 37° C. with shaking. Transferring 54 μL of liver microsomes to each well of the blank plate, adding 6 μL of NAPDH coenzyme solution to the blank plate, and finally transferring 180 μL of termination solution to the blank plate.
2.5.4 Adding 5 μL of compound working solution (100 μM) to the incubation plates T60 and NCF60 containing liver microsomes and mixing three times.
2.5.5. Adding 50 μL of buffer to the NCF60 plate and mixing three times, starting the timer and incubating at 37° C. for 60 min with the plate shaking.
2.5.6. Adding 180 μL of quenching solution and 6 μL of NAPDH coenzyme working solution sequentially to quenching plate TO, making sure that the plate was cold to prevent volatilization of the incubation solution.
2.5.7. For plate T60, mixing well three times and immediately transferring 54 μL of mixing solution (0-min time point) to quenching plate TO, then adding 44 μL of NAPDH coenzyme working solution to incubation plate T60. Starting the timer:
2.5.8. At the 5, 15, 30, 45 and 60 minute time points, adding 180 μL of quenching solution to the quenching plate and transferring 60 μL of reaction solution from the T60 plate to the quenching plate at each time point.
2.5.9. For NCF60 plates, mixing well and transferring 60 μL of reaction solution from the NCF60 incubating solution to a quenching plate containing 180 μL of quenching solution at 60th minute.
2.5.10. All plates were mixed on a shaker for 10 min and then centrifuged at 4000 rpm at 4° C. for 20 min.
2.5.11. Transferring 80 μL of supernatant to 240 μL of HPLC water and mixing on a
2.6.1. Calculating t1/2 and Clint (mic) values based on first-order elimination kinetics: […]

For the molecule “4-((2R,3S,4S,5R)-3-(3,4-difluoro-2-(methoxy-d3)phenyl)-4,5-dimethyl-5-(trifluoromethyl) pyrrolidine-2-carboxamido)pyridinamide [Compound 11]”, in data set [1], the “Area under the curve AUC0-t” value came to 15644 ng·h/mL, the “Clearance CL” value amounted to 0.134 mL/min/kg and the “half-life t½” value came out at 57.4 h.

Take `COc1c([C@H]2[C@H](C(=O)Nc3ccnc(C(N)=O)c3)O[C@@](C)(C(F)(F)F)[C@H]2C)ccc(F)c1F` [VX-548, reference compound]: the AUC(0-t) in data set [1] (dog, plasma, read-out: Area under the curve AUC0-t) is 11100 ng·h/mL. In addition, the clearance in data set [1] (dog, plasma, read-out: Clearance CL (converted)) was 0.438 mL/min/kg. Also, in data set [1] (dog, plasma, read-out: half-life t½ (converted)), the half-life is 19.7 h. Besides, the half-life at 1 μM in data set [2] (Sprague-Dawley, rat, liver microsomes, 37° C., read-out: Rat liver microsomes T½) came to 0.278 h. In data set [2] (T = 60 min), the “Rat liver microsomes Residual (T = 60 min)” value amounted to 8.5%.

For orientation: clearance means the rate of elimination divided by the concentration.
